The source of these data is patent US11820835B2, “Cyclic tetrapeptide analogs” (University of Kansas, priority 2018, dated 2023).

Like-named read-outs stand apart in the source and are kept apart here. Non-standard residues stand in square brackets, D forms with d. Residues, ends and D or L forms follow the SMILES beside them. 2Pal = N[C@@H](Cc1ccccn1)C(=O)O; 3Pal = N[C@@H](Cc1cccnc1)C(=O)O; 4Pal = N[C@@H](Cc1ccncc1)C(=O)O

Data set [1] relates to kappa opioid receptor (KOR). The conditions noted are these: cited from earlier work.
For data set [2], the system named is mice. The conditions noted are these: p.o., CPP assay; Eans et al., 2013; cited from earlier work.
Data set [3] addresses KOR (kappa opioid receptor) (Homo sapiens, UniProt P41145). As to the kind of experiment: Radioligand binding assay, KOR affinity. The settings on record: for Selectivity (KOR/MOR): ratio of KOR and MOR Ki; for Ki: read-out: KOR Ki (nM ± SEM). How it is done:
(§1) The analogs were evaluated in vivo in an analgesic assay (mouse 55° C. warm-water tail withdrawal assay) for opioid agonist and antagonist activity. Representative analogs were evaluated in a conditioned place preference (CPP) assay for their ability to prevent stress-induced relapse to cocaine-seeking behavior. Further, representative analogs were evaluated for opioid receptor affinity in radioligand binding assays (Table 2).

In data set [4] the target is T1, kappa opioid receptor (KOR) (Mus musculus, UniProt P33534).
T1 construct: from tissue; host or cells: living mouse (in vivo; CNS)
The settings on record: p.o.; Eans et al., 2013; cited from earlier work.

A further data set deals with MOR (mu opioid receptor) (Homo sapiens, UniProt P35372). As to the kind of experiment: Radioligand binding assay, MOR affinity. The conditions noted are these: read-out: MOR Ki (nM ± SEM). How it is done:
as §1

Data set [5] is described as follows: Respiration following oral administration. Format: in vivo. The conditions noted are these: 10 or 30 mg/kg p.o. The source says: (§2) FIGS. 6A-B provides the results of studies on locomotion and respiration following oral administration of JVA-3620.
(§3) FIG. 7A-B provides the results of studies on locomotion and respiration following oral administration of JVA-3628.

Data set [6] has as its system mice. As to the kind of experiment: Conditioned place preference (CPP) assay, stress-induced relapse to cocaine-seeking behavior. Format: in vivo, mouse. The settings on record: p.o. How it is done:
as §1

Data set [7] is described as follows: Locomotion following oral administration. Type of data set: in vivo. The settings on record: 10 or 30 mg/kg p.o.
Excerpt: as §2, §3

The target in data set [8] is T1, kappa opioid receptor (KOR). As to the kind of experiment: Mouse 55° C. warm-water tail withdrawal assay, opioid antagonist activity (antagonism of KOR agonist U50,488). Type of data set: in vivo. The settings on record: for duration of KOR antagonism of centrally administered U50,488: 30 mg/kg p.o.; for selectivity of opioid antagonism (KOR vs. MOR and DOR agonists): U50,488, morphine, SNC-80; for antagonism of centrally (i.c.v.) administered KOR agonist U50,488: peptide given orally. How it is done: as §1

For data set [9], the system named is mice. As to the kind of experiment: Mouse 55° C. warm-water tail withdrawal assay, antinociception (opioid agonist activity). Type of data set: in vivo. As to the method:
as §1

Sequence of MOR (mu opioid receptor) (P35372 whole entry): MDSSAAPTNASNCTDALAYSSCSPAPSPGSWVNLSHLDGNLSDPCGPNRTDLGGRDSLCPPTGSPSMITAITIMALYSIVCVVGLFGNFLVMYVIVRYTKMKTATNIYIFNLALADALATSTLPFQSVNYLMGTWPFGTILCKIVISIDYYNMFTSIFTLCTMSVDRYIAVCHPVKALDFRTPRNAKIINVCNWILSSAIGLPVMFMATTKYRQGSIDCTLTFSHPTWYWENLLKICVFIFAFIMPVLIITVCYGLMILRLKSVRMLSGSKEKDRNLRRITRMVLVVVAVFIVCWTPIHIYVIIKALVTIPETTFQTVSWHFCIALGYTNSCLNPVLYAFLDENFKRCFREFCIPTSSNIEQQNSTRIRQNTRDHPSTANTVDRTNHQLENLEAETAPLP
T1 sequence (P33534 whole entry): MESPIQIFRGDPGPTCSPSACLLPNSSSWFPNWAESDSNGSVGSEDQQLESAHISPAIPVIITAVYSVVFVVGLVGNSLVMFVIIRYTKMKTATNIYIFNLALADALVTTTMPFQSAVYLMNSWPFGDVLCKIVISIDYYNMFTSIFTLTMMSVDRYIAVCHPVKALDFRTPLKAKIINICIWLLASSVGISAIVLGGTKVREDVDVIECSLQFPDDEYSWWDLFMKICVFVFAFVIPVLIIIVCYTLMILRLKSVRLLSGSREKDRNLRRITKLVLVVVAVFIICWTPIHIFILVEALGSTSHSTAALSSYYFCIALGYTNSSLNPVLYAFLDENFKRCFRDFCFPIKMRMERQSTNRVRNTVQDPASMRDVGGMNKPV
Sequence of KOR (kappa opioid receptor) (P41145 whole entry): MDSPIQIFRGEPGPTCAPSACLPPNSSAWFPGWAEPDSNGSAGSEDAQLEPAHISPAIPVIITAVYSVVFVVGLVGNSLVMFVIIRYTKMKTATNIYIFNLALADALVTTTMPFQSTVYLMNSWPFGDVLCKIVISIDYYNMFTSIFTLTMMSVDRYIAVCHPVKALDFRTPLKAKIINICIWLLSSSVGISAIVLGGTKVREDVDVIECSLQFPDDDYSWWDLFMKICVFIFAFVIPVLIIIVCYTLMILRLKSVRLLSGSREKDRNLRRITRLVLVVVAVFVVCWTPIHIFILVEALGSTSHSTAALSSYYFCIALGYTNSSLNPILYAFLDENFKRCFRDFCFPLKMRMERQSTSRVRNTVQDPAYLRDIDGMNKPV

Consider `CC(C)[C@@H](CN1CC[C@@](C)(c2cccc(O)c2)[C@@H](C)C1)NC(=O)[C@H]1Cc2ccc(O)cc2CN1` [JDTic], for which the “duration of activity after a single dose” value in [1] (in vivo) is given as “weeks in some species”.

Take `O=C1N[C@H](Cc2c[nH]c3ccccc23)C(=O)N[C@@H](Cc2ccccc2)C(=O)N2CCC[C@@H]2C(=O)N[C@H]1Cc1ccccc1` [JVA-2802, cyclo[Phe′-D-Pro-Phe^3-D-Trp^4]] (cyclo(F[dP]F[dW])): in the data set on mice [2], the “oral dose preventing stress-induced relapse of cocaine-seeking behavior” value is on record as 60 mg/kg. Moreover, in data set [3], the “Selectivity (KOR/MOR)” value is 1/12 and the Ki is 21.8 nM. The duration of action in [1] (Ross et al., 2012, Eans et al., 2013) was < 18 h. Besides, in [4], the “oral dose required to significantly antagonize centrally administered U50,488” value is listed as 30 mg/kg.

Turning to `O=C1N[C@H](Cc2ccccc2)C(=O)N[C@@H](Cc2ccccc2)C(=O)N2CCC[C@@H]2C(=O)N[C@H]1Cc1ccccc1` [JVA-3620] (cyclo(F[dP]F[dF])), the Ki on MOR (mu opioid receptor) stood at 1100 ± 80 nM. Also, in [5], the respiration entry is “decreases respiration during the first hour”. The “oral dose preventing stress-induced relapse of cocaine-seeking behavior” value in the data set with mice [6] came to 30 mg/kg. Further, in data set [3], the “Selectivity (KOR/MOR)” value was 1/38 and the Ki was found to be 28.9 ± 4.9 nM. For the same molecule, the locomotion result in data set [7] was “does not produce hyperlocomotion like morphine, but instead can significantly decrease locomotion during the first hour”. Moreover, in data set [8], the “duration of KOR antagonism of centrally administered U50,488” value lay within 6 to 12 h; the “selectivity of opioid antagonism (KOR vs. MOR and DOR agonists)” value (from here on “selectivity of opioid antagonism”) is “selectively antagonized the KOR agonist U50,488, but not the mu opioid receptor agonist morphine or the delta opioid receptor antagonist SNC-80”; the “antagonism of centrally (i.c.v.) administered KOR agonist U50,488” value is given as “antagonized centrally (i.c.v.) administered KOR agonist”. In addition, in [8] (i.c.v. administration), the KOR antagonism result was “exhibited KOR antagonism”. Also, the KOR antagonism entry in data set [8] (oral (p.o.) administration) is given as “exhibited KOR antagonism”. Besides, the “oral dose required to significantly antagonize centrally administered U50,488” value in [8] (p.o.) stood at 10 mg/kg.

Turning to `O=C1N[C@H](Cc2c[nH]c3ccccc23)C(=O)N[C@@H](Cc2c[nH]cn2)C(=O)N2CCC[C@@H]2C(=O)N[C@H]1Cc1ccccc1` [JVA-3622] (cyclo(H[dP]F[dW])), the results for the Ki (at MOR (mu opioid receptor); in data set [3]) were 2500 ± 510 nM and 667 ± 470 nM, respectively.

Regarding `O=C1N[C@H](Cc2c[nH]c3ccccc23)C(=O)N[C@@H](Cc2ccccc2)C(=O)N2CCC[C@@H]2C(=O)N[C@H]1Cc1c[nH]cn1` [JVA-3623] (cyclo(F[dP]H[dW])), the Ki at MOR (mu opioid receptor) came out at 366 ± 98 nM; in [3], 67.7 ± 9.2 nM.

On to `O=C1N[C@H](Cc2c[nH]c3ccccc23)C(=O)N[C@@H](Cc2ccccc2)C(=O)N2CCC[C@@H]2C(=O)N[C@H]1Cc1cccnc1` [JVA-3624] (cyclo(F[dP][3Pal][dW])), for which, at MOR (mu opioid receptor), the Ki was 191 ± 39 nM. For the same molecule, in data set [3], the “Selectivity (KOR/MOR)” value was 1/23 and the Ki worked out at 8.34 ± 1.48 nM. For the same molecule, the “antinociception ED50” value with mice [9] (i.c.v.) turned out to be 1.13 nmol. Moreover, in the data set on mice [9] (i.c.v. administration), the “antinociception (agonist activity)” value is on record as “exhibits antinociception”. Further, the KOR antagonism result in data set [8] (i.c.v. administration) is listed as “not KOR antagonism”.

Regarding `O=C1N[C@H](Cc2c[nH]c3ccccc23)C(=O)N[C@@H](Cc2ccccc2)C(=O)N2CCC[C@@H]2C(=O)N[C@H]1Cc1ccncc1` [JVA-3625] (cyclo(F[dP][4Pal][dW])), the inhibition constant (Ki) at MOR (mu opioid receptor) is 371 ± 81 nM; in data set [3], 30.7 ± 6.8 nM. Besides, in data set [3], the “Selectivity (KOR/MOR)” value is reported as 1/12.

For the molecule `O=C1N[C@H](Cc2c[nH]c3ccccc23)C(=O)N[C@@H](Cc2ccccc2)C(=O)N2CCC[C@@H]2C(=O)N[C@H]1Cc1ccccn1` [JVA-3626] (cyclo(F[dP][2Pal][dW])), on MOR (mu opioid receptor), the inhibitory constant (Ki) was determined as 1610 ± 590 nM. Moreover, in data set [3], the “Selectivity (KOR/MOR)” value is on record as 1/20 and the Ki was found to be 82.3 ± 13.8 nM.

For the molecule `O=C1N[C@H](Cc2c[nH]c3ccccc23)C(=O)N[C@@H](Cc2ccccn2)C(=O)N2CCC[C@@H]2C(=O)N[C@H]1Cc1ccccc1` [JVA-3627] (cyclo([2Pal][dP]F[dW])), the Ki came out at 2530 ± 460 nM on MOR (mu opioid receptor) and 58.4 ± 9.3 nM in [3]. For the same molecule, the “Selectivity (KOR/MOR)” value in [3] is recorded as 1/43.

`O=C1N[C@H](Cc2c[nH]c3ccccc23)C(=O)N[C@@H](Cc2cccnc2)C(=O)N2CCC[C@@H]2C(=O)N[C@H]1Cc1ccccc1` [JVA-3628] (cyclo([3Pal][dP]F[dW])): on MOR (mu opioid receptor), the inhibition constant (Ki) was determined as 988 ± 146 nM. Besides, the respiration entry in [5] is reported as “decreases respiration during the first hour”. The “oral dose preventing stress-induced relapse of cocaine-seeking behavior” value with mice [6] is listed as 30 mg/kg. In [3], the “Selectivity (KOR/MOR)” value is listed as 1/24 and the inhibition constant Ki is 41.8 ± 16.3 nM. The locomotion result in [7] is listed as “does not produce hyperlocomotion like morphine, but instead can significantly decrease locomotion during the first hour”. Further, in data set [8], the “duration of KOR antagonism of centrally administered U50,488” value lay in the range of 12 to 24 h; the “selectivity of opioid antagonism” value is given as “opioid antagonism is selective for KOR”; the “antagonism of centrally (i.c.v.) administered KOR agonist U50,488” value is “exhibits kappa opioid receptor (KOR) antagonism of centrally administered KOR agonist activity”. Further, in data set [8] (i.c.v. administration), the KOR antagonism result is “selective KOR antagonism”. The KOR antagonism entry in data set [8] (oral (p.o.) administration) was “antagonizing both peripherally and administered KOR agonist”.

On to `O=C1N[C@H](Cc2c[nH]c3ccccc23)C(=O)N[C@@H](Cc2ccncc2)C(=O)N2CCC[C@@H]2C(=O)N[C@H]1Cc1ccccc1` [JVA-3629] (cyclo([4Pal][dP]F[dW])), for which the results for the inhibitory constant (Ki) (at MOR (mu opioid receptor); in data set [3]) were 2740 ± 310 nM and 32 ± 4.1 nM, respectively. Besides, in data set [3], the “Selectivity (KOR/MOR)” value was 1/86.

Turning to [D-2′-Pal^4]CJ-15,208 [JVA-3671], in the data set with mice [9] (i.c.v. administration), the “antinociception (agonist activity)” value is recorded as “exhibits antinociception” and the “opioid receptor mediating the antinociception” value is on record as “mediated by delta opioid receptors (DOR)”. Besides, the KOR antagonism entry in [8] (i.c.v. administration) is “exhibits KOR antagonist activity”.

[D-Bip^4]CJ-15,208 [JVA-3667]: the “antinociception (agonist activity)” value in the data set on mice [9] (i.c.v. administration) was “agonist”. For the same molecule, in data set [8], the “selectivity of opioid antagonism” value is reported as “selective for KOR”. Also, the KOR antagonism entry in data set [8] (i.c.v. administration) was “weak KOR antagonist”; in data set [8] (oral (p.o.) administration) it was “only KOR antagonism”.

[D-His^4]CJ-15,208 [JVA-3670]: in the data set with mice [9] (i.c.v. administration), the “antinociception (agonist activity)” value was “agonist”. In addition, the KOR antagonism result in data set [8] (i.c.v. administration) is on record as “not KOR antagonist”; in data set [8] (oral (p.o.) administration), “only KOR antagonism”.

As for [D-Tyr^4]CJ-15,208 [JVA-3669], the “antinociception (agonist activity)” value in the data set with mice [9] (i.c.v. administration) was “agonist”. Besides, the KOR antagonism entry in data set [8] (i.c.v. administration) is “not KOR antagonist”.

As for [D-hPhe^4]CJ-15,208 [JVA-3668], in the data set on mice [9] (i.c.v. administration), the “antinociception (agonist activity)” value is “agonist”. In addition, the KOR antagonism result in data set [8] (i.c.v. administration) is “not KOR antagonist”.
